Data published in patent US20040002482A1, “Androgen pharmaceutical composition and method for treating depression” (priority 2000, published 2004).
Like-named read-outs stand apart in the source and are kept apart here.

Columns and labels:
depression = conditions: cited from earlier work
[1] = system: major depressive disorder; assay: Eight-week randomized placebo-controlled depression trial of testosterone gel: HAM-D, CGI, BDI; assay type: in vivo, treatment-refractory depressed men
Method: Men age 30-65 years, presently taking an adequate dose of antidepressant medication (as defined by the manufacturer's published product information) for at least the last four weeks, but still complaining of depressive symptoms sufficient to meet DSM-IV criteria for current major depressive disorder. Subjects were initially screened. […] Subjects were then administered the depression module the Structured Clinical Interview for DSM-IV (SCID) to confirm the diagnosis of current major depressive disorder. Subjects were next administered the American Urological Association (AUA) Symptom Index for benign prostatic hyperplasia (B PH), subjects scoring higher than 14 on this index were excluded. Blood was then collected for total testosterone and PSA levels.
(§1) Next, the subjects were administered: 1) basic demographic questions; 2) the remainder of the SCID; 3) questions regarding history of previous antidepressant drug treatment; 4) the HAM-D; 5) the BDI; 6) the Clinical Global Impression Scale (CGI); 7) medical history questions; 8) physical examination, including vital signs, height, weight, and digital rectal examination of the prostate; 9) laboratory tests for standard chemistries, hematology, urinalysis, and HIV serology; 10) electrocardiogram (EKG); and 11) determination of body fat with calipers, together with calculation of fat-free mass index (FFMI), a measure of muscularity previously developed in our laboratory.
Qualifying subjects were then started on a one-week single-blind placebo washout with placebo gel. All subjects were asked to continue taking their existing antidepressant medications, together with any other medications that they were prescribed, at their present dose throughout the study.
Baseline (Week 0): Subjects were assessed for scores on the HAM-D, BDI, and CGI-Severity of Illness; adverse events; and vital signs. Results from the laboratory tests drawn at screen and from EKG readings were also reviewed. […] Drug and placebo were supplied in identical-appearing packets that contained either 2.5 g of AndroGel or a placebo gel.
Week 1: Subjects were assessed for scores on the HAM-D, BDI, and CGI (both Severity of Illness and Improvement as compared to Baseline); adverse events; and vital signs. Subjects provided blood for a total testosterone level, drawn at least four hours after the morning application of the gel.
(§2) Weeks 2, 4, 6, and 8: Subjects were assessed at weeks 2, 4,6 and 8 for HAM-D, BDI, CGI, adverse events, and vital signs. Week 8, subjects received an additional determination of PSA and measurement of weight and body fat. The blind was then broken and the correct identity of treatment assignment determined.
Statistical Analysis: Baseline characteristics of each group were compared using Fisher's exact test for categorical variables and the […] for continuous variables. Two populations of patients were defined: (1) an intent-to-treat group of patients with at least one available efficacy measure, and (2) a completers group, defined as patients who completed the 8-week treatment period.
The primary protocol-defined analysis of efficacy was a repeated measures random regression analysis comparing the rate of change of scores on the HAM-D, BDI, and CGI-severity during the treatment period between groups, using methods described by Diggle et al. and Gibbons et al. A model was used for the mean of the outcome variable that included terms for treatment, time, and treatment-by-time interaction. Time as a continuous variable was modeled, with weeks ranging from 0 (Baseline) to 8 (after randomization). The measure of effect was the treatment-by-time interaction (or the difference in the rate of change per unit of time, or the difference in slope with respect to time) of the efficacy measure. […]

body fat and muscle mass = assay: Depression trial: percent body fat and fat-free mass index (FFMI); assay type: in vivo, treatment-refractory depressed men; conditions: study completers; mean (SD); not significant vs placebo
Method: as §1, §2
For laboratory measures, including body fat and FFMI, the mean difference between endpoint and baseline measures were used, and then compared the treatment groups using the t-test. The correlation coefficients were calculated by using rank-transformed data (Spearman rank correlation). All statistical tests were two-sided with alpha=0.05.

body weight = conditions: patch delivering 150 ug/day; 12 weeks; cited from earlier work
impaired sexual function = conditions: cited from earlier work; for serum free testosterone concentration: mean ± SD
[2] = cited from earlier work
[3] = 10 grams of 1% gel daily added to existing antidepressant, 8 weeks
[4] = Completers, Week 8 as endpoint, N = 10
[5] = Intent to Treat, last observation carried forward, N = 11

## CCCCCCC(=O)O[C@H]1CC[C@H]2[C@@H]3CCC4=CC(=O)CC[C@]4(C)[C@H]3CC[C@]12C [testosterone enanthate]
depression; eight weeks, 400 mg every two weeks i.m. with SSRI, 19.2 at baseline, five men
  mean HAM-D score: 4.0
depression; randomized placebo-controlled trial, six weeks
  subjects responding (50% or greater reduction in HAM-D): About 40%
depression; randomized placebo-controlled trial, six weeks, testosterone alone
  HAM-D or BDI difference vs placebo: no significant difference between testosterone and placebo

## C[C@]12CC[C@H]3[C@@H](CCC4=CC(=O)CC[C@@]43C)[C@@H]1CC[C@@H]2O [testosterone]
[1]; [3]
  CGI-severity scores compared with placebo: significantly greater rates of decrease
  HAM-D scores compared with placebo: significantly greater rate of decrease
[1]; [4]
  BDI, Total Score: mean change from baseline to endpoint: −6.8
  CGI-Improvement (mean): 2.9
  CGI-Severity: mean change from baseline to endpoint: −1.2
  HAM-D, Affective Subscale: mean change from baseline to endpoint: −2.7
  HAM-D, Total score: mean change from baseline to endpoint: −8.8
  HAM-D, Vegetative Subscale: mean change from baseline to endpoint: −3.5
[1]; [5]
  BDI, Total Score: mean change from baseline to endpoint: −5.5
  CGI-Improvement (mean): 3.09
  CGI-Severity: mean change from baseline to endpoint: −0.9
  HAM-D, Affective Subscale: mean change from baseline to endpoint: −2.1
  HAM-D, Total score: mean change from baseline to endpoint: −7.4
  HAM-D, Vegetative Subscale: mean change from baseline to endpoint: −3.2
Body fat and muscle mass
  change in muscle mass as expressed by FFMI: 1.1 (0.9) kg/meter^2
  change in percent body fat: −2.8 (1.7) %
Body weight
  increase in body weight: 4%
Impaired sexual function; 160 μg per day (so in the source) transdermally
  serum free testosterone concentration: 3.9 ± 2.4 pg/mL
Impaired sexual function; 300 μg per day transdermally
  serum free testosterone concentration: 4.9 ± 4.8 pg/mL
Impaired sexual function; 300 μg per day
  percentages of women with sexual fantasies, masturbation or intercourse at least once a week, increase from base line: two to three times
[2]; in vivo
  bound to protein in the blood: 98%
[2]; reported in the literature
  half-life: 10 to 100 min
